ChEMBL document CHEMBL5346969 (J Med Chem, 2023)
In brackets after ≈: the same amount, converted by molar mass. Activity calls are given as the source filed them. No cut-off for these calls is given here.

Key:
[1] = test system: MDA-MB-231; experiment: Induction of ferroptosis in human MDA-MB-231 cells assessed as cell viability incubated for 72 hrs in presence of necrosis inhibitor, necrostatin-1 by MTT assay; assay type: functional, cell-based; conditions: MDA-MB-231, 72 h
[2] = Solubility of compound at pH 7.4; assay type: physicochemical; conditions: buffer
[3] = test system: MDA-MB-231; experiment: Induction of ferroptosis-mediated morphological changes in human MDA-MB-231 cells assessed as smaller mitochondrial volume at 20 nM incubated for 6 hrs by TEM analysis; assay type: functional, cell-based
[4] = test system: MDA-MB-231; experiment: Induction of ferroptosis in human MDA-MB-231 cells with assessed as decrease in intracellular GSH level at 20 nM incubated for 8 hrs by colorimetric assay; assay type: functional, cell-based
[5] = test system: MDA-MB-231; experiment: Induction of ferroptosis in human MDA-MB-231 cells assessed as increase in intracellular lipid peroxidase by measuring increase in green fluorescence intensity at 5 to 20 nM incubated for 8 hrs by C11-BODIPY-581/591 staining based confocal laser microscopy; assay type: functional, cell-based; conditions: dose 5-20 nM
[6] = test system: MDA-MB-231; experiment: Induction of ferroptosis in human MDA-MB-231 cells assessed as cell viability incubated for 72 hrs in presence of autophagy inhibitor, 3-MA by MTT assay; assay type: functional, cell-based; conditions: MDA-MB-231, 72 h
[7] = test system: MDA-MB-468; experiment: Antiproliferative activity against human MDA-MB-468 cells assessed as inhibition of cell viability incubated for 72 hrs by CCK-8 assay; assay type: functional, cell-based; conditions: MDA-MB-468, 72 h
[8] = test system: MDA-MB-231; experiment: Induction of ferroptosis in human MDA-MB-231 cells assessed as cell viability incubated for 72 hrs in presence of apoptosis inhibitor, Z-VAD-FMK by MTT assay; assay type: functional, cell-based; conditions: MDA-MB-231, 72 h
[9] = Toxicity in immunodeficient BALB/c mouse assessed as change in ALT level at 20 mg/kg, ip for 14 days by biochemical analysis; assay type: organism-based; conditions: in vivo, 336 h, time 14 day
[10] = test system: MDA-MB-231; experiment: Induction of ferroptosis in human MDA-MB-231 cells assessed as cell viability incubated for 72 hrs in presence of N-acetyl-L-cysteine by MTT assay; assay type: functional, cell-based; conditions: MDA-MB-231, 72 h
[11] = test system: MDA-MB-231; experiment: Induction of ferroptosis-mediated morphological changes in human MDA-MB-231 cells assessed as broken outer membrane at 20 nM incubated for 6 hrs by TEM analysis; assay type: functional, cell-based
[12] = test system: BT-549; experiment: Antiproliferative activity against human BT-549 cells assessed as inhibition of cell viability at 1 uM incubated for 72 hrs by MTT assay; assay type: functional, cell-based
[13] = Toxicity in immunodeficient BALB/c mouse assessed as bone marrow suppression by measuring WBC level at 20 mg/kg, ip for 14 days by whole blood analysis; assay type: organism-based; conditions: in vivo, 336 h, time 14 day
[14] = test system: MDA-MB-231; experiment: Induction of ferroptosis in human MDA-MB-231 cells assessed as cell viability at 1 uM incubated for 72 hrs in presence of necrosis inhibitor, necrostatin-1 by MTT assay; assay type: functional, cell-based
[15] = test system: MDA-MB-231; experiment: Induction of ferroptosis in human MDA-MB-231 cells assessed as induction of lipid peroxidase accumulation at 5 to 20 nM incubated for 8 hrs by C11-BODIPY-581/591 staining based flow cytometry analysis; assay type: functional, cell-based; conditions: dose 5-20 nM
[16] = test system: MDA-MB-231; experiment: Antitumor activity against human MDA-MB-231 cells xenografted in immunodeficient BALB/c mouse assessed as inhibition of tumor cell proliferation at 20 mg/kg,ip for 21 days consecutively every day by Ki67 staining based immunohistochemical analysis; assay type: functional, organism-based; conditions: time 21.0 day
[17] = test system: MDA-MB-231; experiment: Induction of ferroptosis in human MDA-MB-231 cells with assessed as increase in ACSL4 protein expression level at 5 to 20 nM incubated for 8 hrs by Western blot analysis; assay type: functional, cell-based; conditions: dose 5-20 nM
[18] = test system: MDA-MB-231; experiment: Induction of ferroptosis-mediated morphological changes in human MDA-MB-231 cells assessed as ruptured mitochondria at 20 nM incubated for 6 hrs by TEM analysis; assay type: functional, cell-based
[19] = test system: MDA-MB-231; experiment: Induction of ferroptosis in human MDA-MB-231 cells with assessed as reduction in cell viability at 5 to 20 nM incubated for 4 to 10 hrs by MTT assay; assay type: functional, cell-based; conditions: dose 5-20 nM, time 4-10 hrs
[20] = AUCt in rat at 10 mg/kg, ip and measured upto 24 hrs by LC-MS/MS analysis; assay type: ADME, organism-based; set-up: dose 10 mg/kg, time < 24 hrs, route ip; conditions: in vivo
[21] = molecular target: T1, Phospholipid hydroperoxide glutathione peroxidase GPX4 (Homo sapiens) (UniProt P36969); experiment: Binding affinity to GPX4 (unknown origin) at Cys66 residue assessed as change in mass of single charged y6+ ion at 100 uM incubated for 1.5 hrs by SDS-PAGE based LC-MS/MS analysis
T1 sequence (whole entry): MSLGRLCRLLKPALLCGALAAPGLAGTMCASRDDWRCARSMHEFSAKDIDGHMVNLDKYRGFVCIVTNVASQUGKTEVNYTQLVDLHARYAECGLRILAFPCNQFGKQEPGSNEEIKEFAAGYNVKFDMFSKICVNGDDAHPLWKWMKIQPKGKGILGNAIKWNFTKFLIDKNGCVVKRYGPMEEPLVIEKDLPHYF

[22] = molecular target: T1, Phospholipid hydroperoxide glutathione peroxidase GPX4 (Homo sapiens); experiment: Binding affinity to GPX4 in human MDA-MB-231 cells assessed as reduction in thermal stability at 1 uM incubated for 2 hrs by CESTA analysis; assay type: cell-based
[23] = test system: MDA-MB-231; experiment: Induction of ferroptosis in siRNA mediated GPX4 knockdown human MDA-MB-231 cells with assessed as cell viability at 10 nM incubated for 10 hrs by MTT assay; assay type: functional, cell-based
[24] = molecular target: T1, Phospholipid hydroperoxide glutathione peroxidase GPX4 (Homo sapiens); experiment: Binding affinity to GPX4 (unknown origin) at Cys66 residue assessed as change in mass of single charged y4+ ion at 100 uM incubated for 1.5 hrs by SDS-PAGE based LC-MS/MS analysis
[25] = test system: MDA-MB-231; experiment: Induction of ferroptosis in siRNA mediated GPX4 knockdown human MDA-MB-231 cells with assessed as change in GPX4 protein expression level at 20 nM incubated for 8 hrs by Western blot analysis; assay type: functional, cell-based
[26] = Tmax in rat at 10 mg/kg, ip and measured upto 24 hrs by LC-MS/MS analysis; assay type: ADME, organism-based; conditions: in vivo
[27] = molecular target: T1, Phospholipid hydroperoxide glutathione peroxidase GPX4 (Homo sapiens); experiment: Binding affinity to GPX4 (unknown origin) at Cys66 residue assessed as change in mass of single charged y3+ ion at 100 uM incubated for 1.5 hrs by SDS-PAGE based LC-MS/MS analysis
[28] = test system: MDA-MB-231; experiment: Induction of ferroptosis in human MDA-MB-231 cells with assessed as upregulation of GPX4 protein expression level at 5 to 20 nM incubated for <6 hrs by Western blot analysis; assay type: functional, cell-based; conditions: dose 5-20 nM
[29] = Acute toxicity in ICR mouse assessed as lethality at 200 to 488 mg/kg,ip and measured after 14 days; assay type: organism-based; conditions: in vivo, dose 200-488 mg/kg, time 14 day
[30] = molecular target: T1, Phospholipid hydroperoxide glutathione peroxidase GPX4 (Homo sapiens); experiment: Binding affinity to GPX4 (unknown origin) at Cys66 residue assessed as change in mass of single charged y2+ ion at 100 uM incubated for 1.5 hrs by SDS-PAGE based LC-MS/MS analysis
[31] = molecular target: T1, Phospholipid hydroperoxide glutathione peroxidase GPX4 (Homo sapiens); experiment: Binding affinity to GPX4 (unknown origin) at Cys66 residue assessed as change in mass of single charged b4+ ion at 100 uM incubated for 1.5 hrs by SDS-PAGE based LC-MS/MS analysis
[32] = test system: MDA-MB-231; experiment: Induction of ferroptosis in siRNA mediated GPX4 knockdown human MDA-MB-231 cells with assessed as intracellular lipid peroxidase at 20 nM incubated for 8 hrs by C11-BODIPY-581/591 staining based confocal laser microscopy; assay type: functional, cell-based

| Compound | IC50 [1] [nM] | solubility [2] [µg/mL] | Activity [3] | Activity [4] | Activity [5] | IC50 [6] [nM] | IC50 [7] [nM] | IC50 [8] [nM] | Activity [9] | IC50 [10] [nM] | Activity [11] | Activity [12] | Activity [14] | Activity [15] | Activity [16] | Activity [17] | Activity [18] | further results |
| --- | --- | --- | --- | --- | --- | --- | --- | --- | --- | --- | --- | --- | --- | --- | --- | --- | --- | --- |
| COc1cc(N(C(=O)CBr)c2ccc3c(c2)OCCO3)cc(OC)c1F | 25 | 3.3 (≈ 7.74 µM) | Active | Active | Dose-Dependent Effect | 18 | 12 | 30 | Toxic | > 20000 | Active | Active | inactive | Dose-Dependent Effect | Active | Active | Active | Activity [13]: Toxic |
| COc1cc(N(C(=O)CCl)c2ccc3c(c2)OCCO3)cc(OC)c1F | 22 | 3.63 (≈ 9.51 µM) | Active | Active | Dose-Dependent Effect | 18 | 10 | 31 | Toxic | > 20000 | Active | Active | inactive | Dose-Dependent Effect | Active | Active | Active | Activity [19]: Dose-Dependent Effect; AUCt [20]: 12100 ng·h/mL; Activity [21]: inactive; Activity [22]: Active; Activity [23]: inactive; Activity [24]: inactive; Activity [25]: inactive; Tmax [26]: 51 min; Activity [27]: inactive; Activity [28]: Active; LD50 at 336 h [29]: 338 mg/kg; Activity [30]: inactive; Activity [31]: inactive; Activity [32]: Active |
